# Test results from patent US20070225248A1 (Clavis Pharma AS, priority 2006, published 2007).
# Where two headings read alike, the source gives them in different places. Marks after values point to notes of the source that are not given here.
# Assays:
# [1] = test system: Colon 6044 (human colon carcinoma); assay: Antitumour activity in Co6044 after oral administration, different dosing schedules (Table 4); assay type: in vivo, mice; details: for Toxic deaths (d): 7 mice; for Optimum T/C [%] (on day): significant vs saline
# Excerpt: Antitumour Activity of Elaidic Acid (5′)-Gemcitabine Ester in Co6044 After Oral Administration
# [2] = Maximum tolerated dose, administration every third day repeated five times; assay type: in vivo, mice; details: administered every third day
# Excerpt: This is shown below by the experiments presented in table 1 and table 2 using different mice strains and also different human colon xenografts.
# [3] = test system: Colon 6044 (human colon carcinoma)
# [4] = test system: Colon 5776 (human colon carcinoma); assay: Antitumour activity in human colon cancer xenograft Co5776, IP treatment; details: for Toxic deaths (d): 8 NCR:nu/nu female mice; for Optimum T/C [%] (volume of treated tumour versus control tumour): significant vs saline; for antitumour activity in terms of reductions in tumor growth (in words): FIG. 1
# Excerpt: (§1) Human colon cancer Co5776 was inserted to Ncr:nu/nu female mice subcutaneously, and treatment started when tumors reached a mean volume of 100 mm^3.
# [5] = test system: Co6044 (human colon carcinoma); assay: Antitumour activity in human colon cancer xenograft Co6044, IP treatment; details: for Toxic deaths (d): 8 mice; for Optimum T/C [%]: significant vs saline
# Excerpt: (§2) Treatment started when the tumors reached a mean volume of 100 mm^3.
# [6] = test system: Colon 5776 (human colon carcinoma); details: mouse, in vivo, ip, 120 mg/kg
# Excerpt: as §1
# [7] = test system: Co6044 (human colon carcinoma); details: mouse, in vivo, ip, 120 mg/kg
# Excerpt: as §2
# [8] = Oral 10 mg/kg, D 7, 10, 13, 16, 19
# [9] = Oral 15 mg/kg, D 7, 10, 13, 16, 19
# [10] = IP 40 mg/kg, D8, 11, 14, 17, 20
# [11] = IP 120 mg/kg, D8, 11, 14, 17, 20
structure (smiles),measurement,setting,value
"CCCCCCCC/C=C/CCCCCCCC(=O)OC[C@H]1O[C@@H](n2ccc(N)nc2=O)C(F)(F)[C@@H]1O [Elaidic acid (5′)-gemcitabine ester, elaidic acid (5′)-gemcitabine ester]",BWC [%],"[1]; Oral 5 mg/kg, D 7-11",−3%
same,Toxic deaths (d),"[1]; Oral 5 mg/kg, D 7-11",0
same,Optimum T/C [%] (on day),"[1]; Oral 5 mg/kg, D 7-11, optimum on day 28",10(28)* %
same,BWC [%],[1]; [8],−1%
same,Toxic deaths (d),[1]; [8],0
same,Optimum T/C [%] (on day),"[1]; Oral 10 mg/kg, D 7, 10, 13, 16, 19, optimum on day 24",35(24)* %
same,BWC [%],"[1]; Oral 10 mg/kg, D 7-11",−5%
same,Toxic deaths (d),"[1]; Oral 10 mg/kg, D 7-11",0
same,Optimum T/C [%] (on day),"[1]; Oral 10 mg/kg, D 7-11, optimum on day 17",8(17)* %
same,BWC [%],[1]; [9],−1%
same,Toxic deaths (d),[1]; [9],0
same,Optimum T/C [%] (on day),"[1]; Oral 15 mg/kg, D 7, 10, 13, 16, 19, optimum on day 24",27(24)* %
same,BWC [%],"[1]; Oral 20 mg/kg, D 7, 10, 13, 16, 19",−3%
same,Toxic deaths (d),"[1]; Oral 20 mg/kg, D 7, 10, 13, 16, 19, death on day 17",1(17)
same,Optimum T/C [%] (on day),"[1]; Oral 20 mg/kg, D 7, 10, 13, 16, 19, optimum on day 24",16(24)* %
same,BWC [%],"[1]; Oral 50 mg/kg, D 7, 14",0%
same,Toxic deaths (d),"[1]; Oral 50 mg/kg, D 7, 14",0
same,Optimum T/C [%] (on day),"[1]; Oral 50 mg/kg, D 7, 14, optimum on day 17",22(17)* %
same,BWC [%],"[1]; Oral 100 mg/kg, D 7, 14",−4%
same,Toxic deaths (d),"[1]; Oral 100 mg/kg, D 7, 14, death on day 20",1(20)
same,Optimum T/C [%] (on day),"[1]; Oral 100 mg/kg, D 7, 14, optimum on day 24",4(24)* %
same,activity after oral administration (in words),"[1]; oral, all tested schedules",High dose dependent activity
same,significance of antitumour activity (in words),"[1]; oral, all the tested schedules",Significant antitumour activity
same,maximum tolerated dose,[2],40 mg/kg per injection
same,BWC [%] D 13,"[3]; Oral 40 mg/kg, Q3 × 5, D 13",−7%
same,Toxic deaths (d),"[3]; Oral 40 mg/kg, Q3 × 5, deaths on day 15",2/8 (15)
same,Optimum T/C [%] (on day),"[3]; Oral 40 mg/kg, Q3 × 5, optimum on day 27, significant vs saline",5(27)* %
same,Optimum T/C [%] (on day),"[3]; Oral 60 mg/kg, Q3 × 5",Toxic
same,BWC [%] D 13,"[3]; Oral 60 mg/kg, Q3 × 5, D 13",−9%
same,Toxic deaths (d),"[3]; Oral 60 mg/kg, Q3 × 5, deaths days 12-24",6/8(12-24)
same,Optimum T/C [%] (on day),"[3]; Oral 80 mg/kg, Q3 × 5",Toxic
same,BWC [%] D 13,"[3]; Oral 80 mg/kg, Q3 × 5, D 13",−6%
same,Toxic deaths (d),"[3]; Oral 80 mg/kg, Q3 × 5, deaths days 16-22",6/8(16-22)
same,activity and tolerability when given orally (in words),"[3]; oral, 40 mg/kg",highly active and tolerable
same,BWC [%] (body weight change),[4]; [10],−4%
same,Toxic deaths (d),[4]; [10],0
same,Optimum T/C [%] (volume of treated tumour versus control tumour),[4]; [10],17* %
same,antitumour activity in terms of reductions in tumor growth (in words),[4]; IP 40 mg/kg,high antitumour activity
same,antitumor effect (in words),[5]; IP 40 mg/kg every third day for five times,Excellent antitumor effect
same,Toxic deaths (d),[5]; [10],0
same,BWC D 8-15 (body weight change),"[5]; IP 40 mg/kg, D8, 11, 14, 17, 20, D 8-15",−1
same,Optimum T/C [%],[5]; [10],19* %
"Nc1ccn([C@@H]2O[C@H](CO)[C@@H](O)C2(F)F)c(=O)n1 [Gemcitabine, 2′,2′-difluorodeoxycytidine, reference compound]",maximum tolerated dose,[2],approximately 120 mg/kg per injection
same,BWC [%] (body weight change),[6],−5%
same,BWC D 8-15 (body weight change),[7],−3
same,BWC [%] D 13,"[3]; mouse, in vivo, po, 120 mg/kg",−16%
same,BWC [%] D 13,"[3]; mouse, in vivo, po, 180 mg/kg",−22%
same,BWC [%] D 13,"[3]; mouse, in vivo, po, 240 mg/kg",−21%
same,Toxic deaths (d),"[4]; IP 120 mg/kg, D8, 11, 14, 17, 20, death on day 18",1(18)
same,Optimum T/C [%] (volume of treated tumour versus control tumour),[4]; [11],17* %
same,antitumour activity in terms of reductions in tumor growth (in words),[4]; IP 120 mg/kg,high antitumour activity
same,antitumor effect (in words),[5]; IP 120 mg/kg every third day for five times,Excellent antitumor effect
same,Toxic deaths (d),[5]; [11],0
same,Optimum T/C [%],[5]; [11],15* %
